Patent publication US8143288B2, “Inhibitors of HCV replication” (priority 2005, dated 2012)

System: HCV 1b-377-neo replicon cells
Experiment: HCV replicon FRET assay
Format: cell-based
Conditions: Hepatitis C virus; HCV replicon; read-out: Activity (EC50)

| Structure (SMILES) | EC50 |
| --- | --- |
| [N-]=[N+]=Nc1cccc(CC(=O)N2CCC[C@H]2C(=O)Nc2ccc(/C=C/c3ccc(NC(=O)[C@@H]4CCCN4C(=O)Cc4cccc(N=[N+]=[N-])c4)cc3)cc2)c1 [Example 128] | 0.1 to 90 nM |
| CC(=O)N1C[C@H](OC(C)(C)C)C[C@H]1C(=O)Nc1ccc(/C=C/c2ccc(NC(=O)[C@@H]3C[C@@H](OC(C)(C)C)CN3C(=O)Cc3cccnc3)cc2)cc1 [Example 132] | 100 to 1000 nM |
| Cc1nc2sccn2c1C(=O)N1CCC[C@H]1C(=O)Nc1ccc(/C=C/c2ccc(NC(=O)[C@@H]3CCCN3C(=O)c3c(C)nc4sccn34)cc2)cc1 [Example 214] | 0.1 to 90 nM |
| CC(C)N(C(=O)N1CCCC1C(=O)Nc1ccc(/C=C/c2ccc(NC(=O)C3CCCN3C(=O)N(C(C)C)C(C)C)cc2)cc1)C(C)C (stereo not drawn) [Example 284] | 0.1 to 90 nM |
| O=C(Nc1ccc(/C=C/c2ccc(NC(=O)[C@@H]3CCCN3C(=O)c3c[nH]cn3)cc2)cc1)[C@@H]1CCCN1C(=O)c1c[nH]cn1 [Example 210] | 1000 to 10000 nM |
| COc1cccc(C(=O)N2CCC[C@H]2C(=O)Nc2ccc(/C=C/c3ccc(NC(=O)[C@@H]4CCCN4C(=O)c4cccc(OC)c4OC)cc3)cc2)c1OC [Example 146] | 1000 to 10000 nM |
| CC(C)(C)O[C@@H]1C[C@@H](C(=O)Nc2ccc(/C=C/c3ccc(NC(=O)[C@@H]4C[C@@H](OC(C)(C)C)CN4C(=O)Cc4ccccc4)cc3)cc2)N(C(=O)Cc2ccccc2)C1 [Example 295] | 1000 to 10000 nM |
| CC(C)(C)NC(=O)O[C@@H]1C[C@@H](C(=O)Nc2ccc(/C=C/c3ccc(NC(=O)[C@@H]4C[C@@H](O)CN4C(=O)OCc4ccccc4)cc3)cc2)N(C(=O)OCc2ccccc2)C1 [Example 247] | 1000 to 10000 nM |
| CSc1ncccc1C(=O)N1CCC[C@H]1C(=O)Nc1ccc(/C=C/c2ccc(NC(=O)[C@@H]3CCCN3C(=O)c3cccnc3SC)cc2)cc1 [Example 192] | 100 to 1000 nM |
| CC(C)C(=O)N1CCC[C@H]1C(=O)Nc1ccc(/C=C/c2ccc(NC(=O)[C@@H]3CCCN3C(=O)Cc3cccs3)cc2)cc1 [Example 102] | 0.1 to 90 nM |
| CNc1ccccc1C(=O)N1CCC[C@H]1C(=O)Nc1ccc(/C=C/c2ccc(NC(=O)[C@@H]3CCCN3C(=O)c3ccccc3NC)cc2)cc1 [Example 140] | 100 to 1000 nM |
| O=C(Nc1ccc(/C=C/c2ccc(NC(=O)[C@@H]3CCCN3C(=O)C3CCC3)cc2)cc1)[C@@H]1CCCN1C(=O)C1CCC1 [Example 44] | 0.1 to 90 nM |
| CC(=O)N1CCC[C@H]1C(=O)Nc1ccc(/C=C/c2ccc(NC(=O)[C@@H]3CCCN3C(=O)Cc3ccncc3)cc2)cc1 [Example 51] | 100 to 1000 nM |
| O=C(Nc1ccc(/C=C/c2ccc(NC(=O)[C@@H]3CCCN3C(=O)C3CC3)cc2)cc1)[C@@H]1CCCN1C(=O)Cc1cccnc1 [Example 63] | 0.1 to 90 nM |
| O=C(Nc1ccc(/C=C/c2ccc(NC(=O)[C@@H]3CCCN3C(=O)c3nc4ccccc4[nH]3)cc2)cc1)[C@@H]1CCCN1C(=O)c1nc2ccccc2[nH]1 [Example 180] | 1000 to 10000 nM |
| O=C(c1ccccc1)c1cccnc1C(=O)N1CCC[C@H]1C(=O)Nc1ccc(/C=C/c2ccc(NC(=O)[C@@H]3CCCN3C(=O)c3ncccc3C(=O)c3ccccc3)cc2)cc1 [Example 174] | 100 to 1000 nM |
| CN(C)c1ccccc1C(=O)N1CCC[C@H]1C(=O)Nc1ccc(/C=C/c2ccc(NC(=O)[C@@H]3CCCN3C(=O)c3ccccc3N(C)C)cc2)cc1 [Example 144] | 1000 to 10000 nM |
| O=C(Nc1ccc(/C=C/c2ccc(NC(=O)[C@@H]3Cc4ccccc4CN3C(=O)OCc3ccccc3)cc2)cc1)[C@@H]1Cc2ccccc2CN1C(=O)OCc1ccccc1 [Example 10] | 1000 to 10000 nM |
| O=C(Nc1ccc(/C=C/c2ccc(NC(=O)C3CC(=O)N(Cc4ccc(Cl)cc4)C3)cc2)cc1)C1CC(=O)N(Cc2ccc(Cl)cc2)C1 (stereo not drawn) [Example 12] | 1000 to 10000 nM |
| O=C(Nc1ccc(/C=C/c2ccc(NC(=O)[C@@H]3CCCN3C(=O)c3c[nH]c4ccccc34)cc2)cc1)[C@@H]1CCCN1C(=O)c1c[nH]c2ccccc12 [Example 209] | 100 to 1000 nM |

| Structure (SMILES) | EC50 |
| --- | --- |
| COCC(=O)N1CCC[C@H]1C(=O)Nc1ccc(/C=C/c2ccc(NC(=O)[C@@H]3CCCN3C(=O)Cc3cccs3)cc2)cc1 [Example 100] | 0.1 to 90 nM |
| C[C@H](NC(=O)Cc1ccccc1)C(=O)Nc1ccc(/C=C/c2ccc(NC(=O)[C@@H]3CCCN3C(=O)Cc3ccccc3)cc2)cc1 [Example 271] | 0.1 to 90 nM |
| CN(C)c1ccc(C(=O)N2CCC[C@H]2C(=O)Nc2ccc(/C=C/c3ccc(NC(=O)[C@@H]4CCCN4C(=O)C4CCC4)cc3)cc2)cc1 [Example 92] | 0.1 to 90 nM |
| NC(=O)C1(C(=O)N2CCC[C@H]2C(=O)Nc2ccc(/C=C/c3ccc(NC(=O)[C@@H]4CCCN4C(=O)C4(C(N)=O)CC4)cc3)cc2)CC1 [Example 62] | 100 to 1000 nM |
| Cc1ncccc1C(=O)N1CCC[C@H]1C(=O)Nc1ccc(/C=C/c2ccc(NC(=O)[C@@H]3CCCN3C(=O)c3cccnc3C)cc2)cc1 [Example 76] | 100 to 1000 nM |
| Cc1ccc(C(=O)N2CCC[C@H]2C(=O)Nc2ccc(/C=C/c3ccc(NC(=O)[C@@H]4CCCN4C(=O)c4ccc(C)nc4)cc3)cc2)cn1 [Example 80] | 100 to 1000 nM |
| N#CC1(C(=O)N2CCC[C@H]2C(=O)Nc2ccc(/C=C/c3ccc(NC(=O)[C@@H]4CCCN4C(=O)C4(C#N)CC4)cc3)cc2)CC1 [Example 66] | 0.1 to 90 nM |
| COc1cccc(C(=O)N2CCC[C@H]2C(=O)Nc2ccc(/C=C/c3ccc(NC(=O)[C@@H]4CCCN4C(=O)c4cccc(OC)c4)cc3)cc2)c1 [Example 32] | 0.1 to 90 nM |
| O=C(Nc1ccc(/C=C/c2ccc(NC(=O)[C@@H]3CCCN3C(=O)c3cccc4ccccc34)cc2)cc1)[C@@H]1CCCN1C(=O)c1cccc2ccccc12 [Example 163] | 1000 to 10000 nM |
| O=C(Nc1ccc(/C=C/c2ccc(NC(=O)[C@@H]3CCCN3C(=O)c3ccccc3NCc3ccccc3)cc2)cc1)[C@@H]1CCCN1C(=O)c1ccccc1NCc1ccccc1 [Example 141] | 1000 to 10000 nM |
| CCCOc1ccccc1C(=O)N1C[C@@H](N(C)C)C[C@H]1C(=O)Nc1ccc(/C=C/c2ccc(NC(=O)[C@@H]3C[C@H](N(C)C)CN3C(=O)c3ccccc3OCCC)cc2)cc1 [Example 227] | 1000 to 10000 nM |
| CC(C)NC(=O)N1CCC[C@H]1C(=O)Nc1ccc(/C=C/c2ccc(NC(=O)[C@@H]3CCCN3C(=O)NC(C)C)cc2)cc1 [Example 285] | 100 to 1000 nM |
| CCCOc1cccnc1C(=O)N1CCC[C@H]1C(=O)Nc1ccc(/C=C/c2ccc(NC(=O)[C@@H]3CCCN3C(=O)c3ncccc3OCCC)cc2)cc1 [Example 159] | 1000 to 10000 nM |
| O=C(Nc1ccc(/C=C/c2ccc(NC(=O)[C@@H]3CCCN3C(=O)c3ccno3)cc2)cc1)[C@@H]1CCCN1C(=O)c1ccno1 [Example 79] | 0.1 to 90 nM |
| CN(C)[C@H]1C[C@@H](C(=O)Nc2ccc(/C=C/c3ccc(NC(=O)[C@@H]4C[C@H](N(C)C)CN4C(=O)[C@H]4CCCO4)cc3)cc2)N(C(=O)[C@H]2CCCO2)C1 [Example 226] | 100 to 1000 nM |
| COCC(=O)N1CCC[C@H]1C(=O)Nc1ccc(/C=C/c2ccc(NC(=O)[C@@H]3CCCN3C(=O)COC)cc2)cc1 [Example 47] | 100 to 1000 nM |
| O=C(Nc1ccc(/C=C/c2ccc(NC(=O)[C@@H]3CCCN3C(=O)Cc3ccccc3)cc2)cc1)C1CC1 [Example 292] | 100 to 1000 nM |
| O=C(Nc1ccc(/C=C/c2ccc(NC(=O)[C@@H]3CCCN3C(=O)Cc3ccccc3OCc3ccccc3)cc2)cc1)[C@@H]1CCCN1C(=O)Cc1ccccc1OCc1ccccc1 [Example 167] | 1000 to 10000 nM |
| O=C(Nc1ccc(/C=C/c2ccc(NC(=O)[C@@H]3CCCN3C(=O)Cc3ccccc3)c(F)c2)cc1F)[C@@H]1CCCN1C(=O)Cc1ccccc1 [Example 276] | 0.1 to 90 nM |
